Among the data in US20110092476A1, “Bicycloheteroaryl compounds as P2X7 modulators and uses thereof” (Renovis, Inc., priority 2006, published 2011) are inhibition and IC50 values, retold here.

In the first experiment the target is T1, P2X7 receptor (Homo sapiens, UniProt Q99572).
T1 construct: host or cells: THP-1 cells differentiated with LPS and IFN-γ
T1 sequence (Q99572 1-595): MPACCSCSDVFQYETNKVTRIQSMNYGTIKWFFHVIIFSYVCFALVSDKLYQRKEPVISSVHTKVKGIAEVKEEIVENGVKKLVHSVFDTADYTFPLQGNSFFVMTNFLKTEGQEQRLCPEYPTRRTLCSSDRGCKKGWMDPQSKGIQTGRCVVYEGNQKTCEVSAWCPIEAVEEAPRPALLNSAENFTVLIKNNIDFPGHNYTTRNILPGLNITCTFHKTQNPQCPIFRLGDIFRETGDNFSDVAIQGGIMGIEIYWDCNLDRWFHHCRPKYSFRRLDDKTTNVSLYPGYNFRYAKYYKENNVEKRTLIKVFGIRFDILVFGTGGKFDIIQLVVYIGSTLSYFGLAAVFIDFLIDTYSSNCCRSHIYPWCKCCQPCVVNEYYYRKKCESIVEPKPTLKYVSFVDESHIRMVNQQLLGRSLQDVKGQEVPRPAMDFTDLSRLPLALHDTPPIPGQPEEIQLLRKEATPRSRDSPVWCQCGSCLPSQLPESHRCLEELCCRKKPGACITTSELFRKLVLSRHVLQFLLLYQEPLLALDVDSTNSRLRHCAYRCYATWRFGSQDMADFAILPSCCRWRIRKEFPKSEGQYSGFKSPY
Briefly: IL-1β release assay in differentiated THP-1 cells stimulated with BzATP (Example 9). The class given is cell-based. Conditions: 0.1 μM compound (symbols *); differentiated THP-1 cells, BzATP 250 uM; read-out: IL-1β % Inhib. @ 0.3 or 0.1 uM. Summed up: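 IC50 derived by four-parameter logistic fit of percent inhibition of IL-1β release (ELISA, background-adjusted). Release triggered by 45 min BzATP at 250 uM final after 30 min compound pretreatment of THP-1 cells previously differentiated 16 h (LPS, IFN-γ, 100 ng/mL each) and re-primed 2 h with LPS.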
In the case of `Cc1cc(C)c(CC(=O)Nc2cccc3c(=O)n(CC(C)(C)O)ccc23)c(C)c1` [Compound 190], the inhibition at 0.1 µM lay within 0 to 25%. As to `Cc1ccc(C)c(CC(=O)Nc2cccc3c(=O)n(CC(C)(C)O)ccc23)c1` [Compound 191], the inhibition at 0.1 µM was in the range of 0 to 25%. On the same count and under the same terms, as for `COc1ccc(C(=O)Nc2cccc3c(=O)n(CC(C)(C)O)ccc23)cc1Cl` [Compound 192], the figure is 0 to 25%; as for `CCOc1cccc(C(=O)Nc2cccc3c(=O)n(CC(C)(C)O)ccc23)c1` [Compound 193], 0 to 25%; as for `CC(C)(O)Cn1ccc2c(NC(=O)CCc3ccccc3Cl)cccc2c1=O` [Compound 194], 0 to 25%. Turning to `CC(C)(O)Cn1ccc2c(NC(=O)CCc3ccc4c(c3)OCO4)cccc2c1=O` [Compound 195], the inhibition at 0.1 µM is 0 to 25%.

In the case of `Cc1cc(C(=O)Nc2cccc3c(=O)n(CC(C)(C)O)ccc23)ccc1Cl` [Compound 196], the inhibition at 0.1 µM lay within 0 to 25%.

The experiment is the same for the next values; noted with them: 0.1 μM compound; differentiated THP-1 cells, BzATP 250 uM; "*" symbols; read-out: IL-1β % Inhib. @ 0.3 or 0.1 uM.
As for `CC(C)(O)Cn1ccc2c(NC(=O)c3ccccc3Cl)cccc2c1=O` [Compound 197], the inhibition at 0.1 µM is 51 to 75%.

With `CC(C)(O)Cn1ccc2c(NC(=O)c3ccc(Cl)cc3Cl)cccc2c1=O` [Compound 198], the inhibition at 0.1 µM is 0 to 25%.

`CC(C)(O)Cn1ccc2c(NC(=O)c3cc(Cl)ccc3Cl)cccc2c1=O` [Compound 199]: the inhibition at 0.1 µM lay in the range of 0 to 25%. As to `Cc1ccccc1C(=O)Nc1cccc2c(=O)n(CC(C)(C)O)ccc12` [Compound 200], the inhibition at 0.1 µM was in the range of 0 to 25%.

For the molecule `Cc1ccc(C(=O)Nc2cccc3c(=O)n(CC(C)(C)O)ccc23)c(C)c1` [Compound 201], the inhibition at 0.1 µM fell in the range of 0 to 25%. Consider `Cc1ccc(C)c(C(=O)Nc2cccc3c(=O)n(CC(C)(C)O)ccc23)c1` [Compound 202], for which the inhibition at 0.1 µM is 0 to 25%.

In the case of `CC(C)(O)Cn1ccc2c(NC(=O)c3cc(Cl)cc(Cl)c3)cccc2c1=O` [Compound 203], the inhibition at 0.1 µM was 0 to 25%. `CC(C)(O)Cn1ccc2c(NC(=O)c3cccc4ccccc34)cccc2c1=O` [Compound 204]: the inhibition at 0.1 µM was 0 to 25%. As for `CC(C)(O)Cn1ccc2c(NC(=O)Cc3cccc4ccccc34)cccc2c1=O` [Compound 205], the inhibition at 0.1 µM lay in the range of 0 to 25%.

As for `CC(C)(O)Cn1ccc2c(NC(=O)c3ccc4ccccc4c3)cccc2c1=O` [Compound 206], the inhibition at 0.1 µM fell in the range of 0 to 25%. Take `CC(C)(O)Cn1ccc2c(NC(=O)Cc3ccccc3F)cccc2c1=O` [Compound 207]: the inhibition at 0.1 µM lay in the range of 0 to 25%.

In the case of `CC(C)(O)Cn1ccc2c(NC(=O)Cc3ccccc3Cl)cccc2c1=O` [Compound 208], the inhibition at 0.1 µM is 0 to 25%. On to `COc1ccccc1CC(=O)Nc1cccc2c(=O)n(CC(C)(C)O)ccc12` [Compound 209], for which the inhibition at 0.1 µM fell in the range of 0 to 25%. Turning to `COc1ccc(OC)c(CC(=O)Nc2cccc3c(=O)n(CC(C)(C)O)ccc23)c1` [Compound 210], the inhibition at 0.1 µM lay within 0 to 25%. Regarding `Cc1ccccc1CC(=O)Nc1cccc2c(=O)n(CC(C)(C)O)ccc12` [Compound 211], the inhibition at 0.1 µM lay within 0 to 25%. `COc1cccc(CC(=O)Nc2cccc3c(=O)n(CC(C)(C)O)ccc23)c1` [Compound 212]: the inhibition at 0.1 µM was 26 to 50%. As to `Cc1cccc(CC(=O)Nc2cccc3c(=O)n(CC(C)(C)O)ccc23)c1` [Compound 213], the inhibition at 0.1 µM lay within 0 to 25%.

For the molecule `COc1ccc(CC(=O)Nc2cccc3c(=O)n(CC(C)(C)O)ccc23)cc1` [Compound 214], the inhibition at 0.1 µM was in the range of 0 to 25%. As for `CCOc1ccc(CC(=O)Nc2cccc3c(=O)n(CC(C)(C)O)ccc23)cc1` [Compound 215], the inhibition at 0.1 µM lay within 26 to 50%. Still for that read-out and setting: the result for `Cc1ccc(CC(=O)Nc2cccc3c(=O)n(CC(C)(C)O)ccc23)cc1` [Compound 216] reads 0 to 25%. Consider `CC(C)(O)Cn1ccc2c(NC(=O)c3cc4ccccc4o3)cccc2c1=O` [Compound 217], for which the inhibition at 0.1 µM was 0 to 25%. Regarding `CC(C)(O)Cn1ccc2c(NC(=O)Cc3ccc4c(c3)OCO4)cccc2c1=O` [Compound 218], the inhibition at 0.1 µM fell in the range of 0 to 25%. On the same count and under the same terms, as for `COc1cc(CC(=O)Nc2cccc3c(=O)n(CC(C)(C)O)ccc23)cc(OC)c1` [Compound 219], the figure is 0 to 25%. Same read-out and setting: the result for `Cc1ccc(C(=O)Nc2cccc3c(=O)n(CC(C)(C)O)ccc23)cc1Cl` [Compound 220] reads 26 to 50%; that for `Cc1cc(Cl)ccc1C(=O)Nc1cccc2c(=O)n(CC(C)(C)O)ccc12` [Compound 221], 26 to 50%; that for `CC(C)(O)Cn1ccc2c(NC(=O)c3cccc4c3OCCO4)cccc2c1=O` [Compound 222], 0 to 25%.

In the case of `CC(C)(O)Cn1ccc2c(NC(=O)c3ccc4c(c3)OCCCO4)cccc2c1=O` [Compound 223], the inhibition at 0.1 µM was 0 to 25%. Turning to `CC(C)(O)Cn1ccc2c(NC(=O)Cc3csc4ccccc34)cccc2c1=O` [Compound 224], the inhibition at 0.1 µM was in the range of 26 to 50%. With `Cc1c(Cl)cccc1C(=O)Nc1cccc2c(=O)n(CC(C)(C)O)ccc12` [Compound 225], the inhibition at 0.1 µM lay in the range of 0 to 25%. Take `Cc1cc(C)cc(CC(=O)Nc2cccc3c(=O)n(CC(C)(C)O)ccc23)c1` [Compound 226]: the inhibition at 0.1 µM was in the range of 0 to 25%.

As for `COc1ccc(C(=O)Nc2cccc3c(=O)n(CC(C)(C)O)ccc23)cc1C` [Compound 227], the inhibition at 0.1 µM was 0 to 25%.

The experiment is the same for the next values; noted with them: 0.3 μM compound; differentiated THP-1 cells, BzATP 250 uM; "+" symbols; read-out: IL-1β % Inhib. @ 0.3 or 0.1 uM.
As to `O=C(Cc1ccc(Cl)cc1C(F)(F)F)Nc1cccc2c(=O)n(C(CO)CO)ccc12` [Compound 228], the inhibition at 0.3 µM lay in the range of 51 to 75%. On the same count and under the same terms, as for `O=C(Cc1ccc(Cl)cc1C(F)(F)F)Nc1cccc2c(=O)n(CCO)ccc12` [Compound 229], the figure is 51 to 75%; as for `O=C(Cc1ccc(C(F)(F)F)cc1C(F)(F)F)Nc1cccc2c(=O)n(CCO)ccc12` [Compound 230], above 76%; as for `CC(C(=O)Nc1cccc2c(=O)n(C(CO)CO)ccc12)c1ccc(Cl)cc1` (centres unmarked) [Compound 231], 26 to 50%. Same read-out and setting: the result for `O=C(Cc1ccc(C(F)(F)F)cc1C(F)(F)F)Nc1cccc2c(=O)n(C(CO)CO)ccc12` [Compound 233] reads 26 to 50%; that for `CNCCn1ccc2c(NC(=O)Cc3ccc(Cl)c(Cl)c3)cccc2c1=O` [Compound 234], 51 to 75%. Still for that read-out and setting: the result for `CNCCn1ccc2c(NC(=O)Cc3ccc(Cl)c(C(F)(F)F)c3)cccc2c1=O` [Compound 235, 2-(4-Chloro-3-trifluoromethyl-phenyl)-N-[2-(2-methylamino-ethyl)-1-oxo-1,2-dihydro-isoquinolin-5-yl]-acetamide] reads above 76%; that for `C[C@H](C(N)=O)n1ccc2c(NC(=O)Cc3ccc(Cl)c(Cl)c3)cccc2c1=O` [Compound 239], above 76%. Consider `CC(C(=O)Nc1cccc2c(=O)n([C@@H](C)C(N)=O)ccc12)c1ccc(Cl)cc1` (some centres unmarked) [Compound 240], for which the inhibition at 0.3 µM is above 76%.

With `C[C@H](C(N)=O)n1ccc2c(NC(=O)Cc3ccc(Cl)cc3C(F)(F)F)cccc2c1=O` [Compound 241], the inhibition at 0.3 µM was above 76%.

`CC(C(=O)Nc1cccc2c(=O)n(C[C@H]3CCCN3)ccc12)c1ccc(Cl)cc1` (some centres unmarked) [Compound 242]: the inhibition at 0.3 µM was in the range of 26 to 50%. With `O=C(Cc1ccc(Cl)c(C(F)(F)F)c1)Nc1cccc2c(=O)n(C[C@H]3CCCN3)ccc12` [Compound 243], the inhibition at 0.3 µM is above 76%. Consider `CC(C(=O)Nc1cccc2c(=O)n(CCO)ccc12)c1ccc(Cl)cc1` (centres unmarked) [Compound 244], for which the inhibition at 0.3 µM is 26 to 50%. As to `O=C(Cc1ccc(Cl)c(Cl)c1)Nc1cccc2c(=O)n(C[C@H]3CCCN3)ccc12` [Compound 245], the inhibition at 0.3 µM was above 76%.

For the molecule `CC(C(=O)Nc1cccc2c(=O)n(C[C@@H]3CCCN3)ccc12)c1ccc(Cl)cc1` (some centres unmarked) [Compound 246], the inhibition at 0.3 µM lay in the range of 51 to 75%. Take `O=C(Cc1ccc(Cl)c(Cl)c1)Nc1c(Cl)ccc2c(=O)n(CCO)ccc12` [Compound 248]: the inhibition at 0.3 µM was 0 to 25%.

In the case of `CC(C(=O)Nc1cccc2c(=O)n(CCO)ccc12)c1ccc(Cl)c(C(F)(F)F)c1` (centres unmarked) [Compound 251], the inhibition at 0.3 µM is above 76%.

Take `CC(C(=O)Nc1cccc2c(=O)n([C@H](CO)C(N)=O)ccc12)c1ccc(Cl)cc1` (stereo partly drawn) [Compound 252, (R)-2-{5-[2-(4-Chloro-phenyl)-propionylamino]-1-oxo-1H-isoquinolin-2-yl}-3-hydroxy-propionamide]: the inhibition at 0.3 µM is 51 to 75%. For `NC(=O)[C@H](CO)n1ccc2c(NC(=O)Cc3ccc(Cl)c(Cl)c3)cccc2c1=O` [Compound 253], the inhibition at 0.3 µM lay within 26 to 50%.

Take `C[C@H](C(N)=O)n1ccc2c(NC(=O)Cc3cccc(Cl)c3)cccc2c1=O` [Compound 255]: the inhibition at 0.3 µM was above 76%.

Staying with this experiment, now noted: THP-1 cells, BzATP 250 uM, IL-1β by ELISA.
`CC(C(=O)Nc1cccc2c(=O)n(C[C@H]3CCCN3)ccc12)c1ccc(Cl)cc1` (some centres unmarked) [Compound 242] came in with an IC50 of 356 nM.

In general, IC50 refers to the concentration that gives 50% inhibition. A lower IC50 goes with higher potency.
